Values belong to the compound of their own block, whether it stands above or below them.
Legend:
[1] = target: T1, Bromodomain-containing protein 4 (Homo sapiens, UniProt O60885); assay: Inhibition of BRD4-BD1 (unknown origin)
Histone deacetylase 1 = Histone deacetylase 1 (Homo sapiens, UniProt Q13547); assay: Inhibition of HDAC1 (unknown origin)
[2] = target: T1, Bromodomain-containing protein 4; assay: Inhibition of GST-tagged BRD4 (unknown origin) by HTRF assay
[3] = target: T2, Bromodomain testis-specific protein (Homo sapiens, UniProt Q58F21); assay: Inhibition of recombinant BRDT-BD1 (unknown origin) by TR-FRET assay
[4] = target: T3, Bromodomain-containing protein 3 (Homo sapiens, UniProt Q15059); assay: Inhibition of recombinant BRD3-BD1 (unknown origin) by TR-FRET assay
[5] = target: T4, Bromodomain-containing protein 2 (Homo sapiens, UniProt P25440); assay: Inhibition of recombinant BRD2-BD2 (unknown origin) by TR-FRET assay
[6] = target: T2, Bromodomain testis-specific protein; assay: Inhibition of recombinant BRDT-BD2 (unknown origin) by TR-FRET assay
[7] = target: T4, Bromodomain-containing protein 2; assay: Inhibition of recombinant BRD2-BD1 (unknown origin) by TR-FRET assay
[8] = target: T3, Bromodomain-containing protein 3; assay: Inhibition of recombinant BRD3-BD2 (unknown origin) by TR-FRET assay
Histone deacetylase 3 = Histone deacetylase 3 (Homo sapiens, UniProt O15379); assay: Inhibition of human HDAC3 using Boc-Lys(Ac)-AMC as substrate by fluorescence based assay
[9] = target: T1, Bromodomain-containing protein 4; assay: Inhibition of BRD4-BD2 (unknown origin)
Histone deacetylase = assay: Inhibition of HDAC (unknown origin) by ELISA; format: protein assay, Homo sapiens
U-937 = assay: Cytotoxicity against human U-937 cells assessed as cell viability at 3 uM by MTT assay relative to control; format: functional; conditions: read-out: Activity
[10] = target: T1, Bromodomain-containing protein 4
Description: Inhibition of BRD4 (unknown origin) by ELISA

Sequence of Histone deacetylase 1 (Q13547 whole entry): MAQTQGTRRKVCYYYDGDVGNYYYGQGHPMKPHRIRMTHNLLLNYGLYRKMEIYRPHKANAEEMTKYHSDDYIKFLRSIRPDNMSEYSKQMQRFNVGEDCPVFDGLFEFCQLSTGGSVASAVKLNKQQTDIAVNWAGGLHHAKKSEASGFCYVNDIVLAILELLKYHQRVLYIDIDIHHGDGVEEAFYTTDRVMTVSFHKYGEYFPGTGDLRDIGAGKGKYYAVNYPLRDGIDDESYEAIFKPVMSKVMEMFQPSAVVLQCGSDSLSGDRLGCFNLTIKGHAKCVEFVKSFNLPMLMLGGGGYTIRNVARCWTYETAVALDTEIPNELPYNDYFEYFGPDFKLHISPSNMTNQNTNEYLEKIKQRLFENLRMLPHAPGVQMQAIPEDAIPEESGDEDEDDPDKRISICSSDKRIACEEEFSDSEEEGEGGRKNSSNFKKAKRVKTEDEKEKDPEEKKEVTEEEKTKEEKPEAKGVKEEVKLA
T4 sequence (P25440 whole entry): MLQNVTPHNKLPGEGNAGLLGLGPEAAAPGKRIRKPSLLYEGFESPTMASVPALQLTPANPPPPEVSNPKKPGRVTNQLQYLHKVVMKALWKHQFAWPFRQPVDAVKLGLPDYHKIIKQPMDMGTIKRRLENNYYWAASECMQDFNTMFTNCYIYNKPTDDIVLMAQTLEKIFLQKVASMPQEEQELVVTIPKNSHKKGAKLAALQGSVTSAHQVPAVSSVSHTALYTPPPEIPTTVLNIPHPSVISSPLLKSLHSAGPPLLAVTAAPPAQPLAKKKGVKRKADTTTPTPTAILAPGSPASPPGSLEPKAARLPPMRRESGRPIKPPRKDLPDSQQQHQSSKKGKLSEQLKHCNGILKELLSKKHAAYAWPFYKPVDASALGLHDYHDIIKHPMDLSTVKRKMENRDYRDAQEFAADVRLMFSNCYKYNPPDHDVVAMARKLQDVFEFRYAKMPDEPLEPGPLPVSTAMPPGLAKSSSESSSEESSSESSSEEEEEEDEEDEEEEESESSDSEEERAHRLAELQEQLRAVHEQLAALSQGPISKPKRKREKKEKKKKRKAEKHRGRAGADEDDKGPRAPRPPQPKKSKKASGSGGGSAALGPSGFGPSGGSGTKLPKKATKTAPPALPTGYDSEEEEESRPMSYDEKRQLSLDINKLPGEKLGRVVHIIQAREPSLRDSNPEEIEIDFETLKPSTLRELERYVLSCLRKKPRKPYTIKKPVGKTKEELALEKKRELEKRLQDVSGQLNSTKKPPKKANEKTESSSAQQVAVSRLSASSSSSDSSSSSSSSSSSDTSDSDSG
T3 sequence (Q15059 whole entry): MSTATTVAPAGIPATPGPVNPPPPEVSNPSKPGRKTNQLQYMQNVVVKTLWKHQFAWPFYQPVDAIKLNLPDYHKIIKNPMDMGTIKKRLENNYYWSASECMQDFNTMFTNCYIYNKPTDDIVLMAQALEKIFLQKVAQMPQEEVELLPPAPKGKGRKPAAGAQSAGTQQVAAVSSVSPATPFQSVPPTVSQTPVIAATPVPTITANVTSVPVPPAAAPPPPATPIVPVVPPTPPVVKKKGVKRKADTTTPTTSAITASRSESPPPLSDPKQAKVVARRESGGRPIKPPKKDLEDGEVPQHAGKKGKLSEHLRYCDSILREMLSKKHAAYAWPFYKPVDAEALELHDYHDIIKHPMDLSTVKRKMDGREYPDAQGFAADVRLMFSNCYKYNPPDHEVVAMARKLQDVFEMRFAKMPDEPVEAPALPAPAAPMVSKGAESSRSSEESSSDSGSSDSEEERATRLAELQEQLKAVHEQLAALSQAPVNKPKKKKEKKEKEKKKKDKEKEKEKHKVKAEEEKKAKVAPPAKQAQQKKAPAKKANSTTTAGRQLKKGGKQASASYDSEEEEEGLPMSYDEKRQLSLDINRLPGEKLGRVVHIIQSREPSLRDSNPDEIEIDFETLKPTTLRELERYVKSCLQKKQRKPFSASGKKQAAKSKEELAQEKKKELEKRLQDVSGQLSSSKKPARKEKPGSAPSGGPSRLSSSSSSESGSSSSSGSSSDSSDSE
Sequence of Histone deacetylase 3 (O15379 whole entry): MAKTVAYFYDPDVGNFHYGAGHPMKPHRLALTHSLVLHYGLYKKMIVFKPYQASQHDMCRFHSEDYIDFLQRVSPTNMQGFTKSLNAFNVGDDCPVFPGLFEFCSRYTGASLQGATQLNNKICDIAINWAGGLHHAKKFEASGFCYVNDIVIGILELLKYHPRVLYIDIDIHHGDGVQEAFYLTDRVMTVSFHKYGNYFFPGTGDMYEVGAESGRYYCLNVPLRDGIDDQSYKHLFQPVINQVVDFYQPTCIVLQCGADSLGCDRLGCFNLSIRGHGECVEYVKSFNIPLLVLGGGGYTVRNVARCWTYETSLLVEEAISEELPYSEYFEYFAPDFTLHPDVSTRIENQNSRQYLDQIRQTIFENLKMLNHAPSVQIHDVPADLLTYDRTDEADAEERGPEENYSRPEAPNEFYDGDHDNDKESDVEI

IC50 [1]: 0.25 µM
IC50 (Histone deacetylase 1): 0.05 µM
SMILES: CC(=O)N1c2ccc(-c3ccc(NC(=O)CCCCCCC(=O)NO)cc3)cc2[C@H](NC(=O)OC(C)C)C[C@@H]1C

IC50 [2]: < 1 µM
SMILES: COC(c1c(F)cccc1Cl)c1c[nH]c2ncc(-c3c(C)noc3C)cc12 (stereo not drawn)

SMILES: Cc1sc2c(c1C)C(c1ccc(Cl)cc1)=N[C@@H](CC(=O)Nc1ccc(C(=O)NO)cc1)c1nnc(C)n1-2
IC50 [3]: 0.011 µM
IC50 [4]: 0.011 µM
IC50 [5]: 0.011 µM
IC50 [6]: 0.011 µM
IC50 [7]: 0.011 µM
IC50 [8]: 0.011 µM

IC50 (Histone deacetylase 3): 0.06 µM
SMILES: O=C(CCCCCCn1cc(Cc2ccccc2)c2ccccc21)NO

SMILES: Cc1sc2c(c1C)C(c1ccc(Cl)cc1)=N[C@@H](CC(=O)NCc1ccc(/C=C/C(=O)NO)cc1)c1nnc(C)n1-2
IC50 [9]: 1.58 µM
IC50 [1]: 1.35 µM
IC50 (Histone deacetylase 1): > 20 µM

SMILES: Cc1sc2c(c1C)C(c1ccc(Cl)cc1)=N[C@@H](CC(=O)Nc1ccc(NC(=O)CCCCCCC(=O)NO)cc1)c1nnc(C)n1-2
IC50 [9]: 11 µM
IC50 [1]: 4.53 µM
IC50 (Histone deacetylase 1): 1.11 µM

SMILES: Cc1sc2c(c1C)C(c1ccc(Cl)cc1)=N[C@@H](CC(=O)Nc1ccc(C(=O)Nc3ccccc3N)cc1)c1nnc(C)n1-2
IC50 [9]: 0.074 µM
IC50 [1]: 0.72 µM
IC50 (Histone deacetylase 1): 0.29 µM

SMILES: Cc1sc2c(c1C)C(c1ccc(Cl)cc1)=N[C@@H](CC(=O)NCCCC(=O)Nc1ccccc1N)c1nnc(C)n1-2
IC50 (Histone deacetylase): 0.03124 µM
viability at 3 µM (U-937): 16.1%
IC50 [10]: 0.0296 µM

IC50 [10]: 0.0431 µM
SMILES: O=C(CCCCCCC(=O)Nc1ccccc1)NO [VORINOSTAT]

Source: ChEMBL document CHEMBL5096143, “Current status in the discovery of dual BET/HDAC inhibitors” (Bioorg Med Chem Lett, 2021)
